Test results published in patent US20120196899A1, “METHODS AND PRODUCTS FOR TREATING INFLAMMATION” (Rock Creek Pharmaceuticals, Inc., priority 2010, published 2012).
“And” between values parts separate entries of the source, which are not always exact repeats. Equal values may be shown once. Read-outs that look alike come from different tables or passages of the source.

Test: Concentration in brain extracts after single i.v. bolus
Format: in vivo, Sprague-Dawley rats
Details: for concentration at 0.5 h / concentration at 24 h / concentration at 6 h: Sprague-Dawley, rat, brain, intravenous
Protocol: Six rats (3 males and 3 females) were dosed per dose group. […] Plasma and brain homogenates were stored at −80° C. until analysis.
An additional 48 rats (24 males and 24 females) received a single intravenous dose via the tail vein at the same doses as mentioned above. At 30 and 360 minutes post administration, 6 rats (3 males and 3 females) per dose group, per time point were euthanized, bled via cardiac puncture, and perfused, and brains were collected. The brains were homogenized. Blood was spun, and plasma was collected. Plasma and brain homogenate were stored at −80° C.
The animals were weighed prior to dosing and received a single i.v. dose of either test compound at a volume of 5 mL/kg. Blood was collected via the venus plexus (retro-orbital) into tubes containing (K2) EDTA. No more than 0.5 mL was collected per time point. […] The brain was removed, weighed, homogenized in sterile 0.9% saline at a volume equal to its weight, and stored at −80° C.
Sample preparation. […] The amount of the test agent in the supernatant was determined by liquid chromatography tandem mass spectrometry (LC/MS/MS).
Analysis. Samples were analyzed by LC/MS/MS using an Agilent 6410 mass spectrometer coupled with an Agilent 1200 high pressure liquid chromatography (HPLC) and a CTC PAL chilled autosampler, all controlled by MassHunter software (Agilent). After separation on a hydrophilic interaction liquid chromatography (HILIC) HPLC column (Sepax) using an acetonitrile-ammonium acetate/acetic acid gradient system, peaks were analyzed by mass spectrometry (MS) using ESI ionization in multiple reaction monitoring (MRM) mode. MassHunter software was used to calculate the concentration of the test compounds in samples from the peak area using the appropriate calibration curves.
Calibration samples. Calibration curves were determined for both rat plasma and brain homogenate. Calibration samples were prepared by diluting a 50× stock solution of the test compound in PBS with blank matrix to the appropriate concentration and these samples were prepared as described above in the sample preparation.

**Q.** Which “Concentration of anatabine in rat brain extract” value (shortened to “Concentration of anatabine”) (Anatabine 0.1 mg/kg, Rat Brain, 0.5 hr, individual rats) does the source give for `C1=CCC(c2cccnc2)NC1` (racemic) [Anatabine, 1,2,3,6-tetrahydro-[2,3′]bipyridinyl] here?
**A.** <LLQ and 21 ng/mL and 34 ng/mL and 25 ng/mL and 30 ng/mL

**Q.** And the “Concentration of anatabine” value (Anatabine 0.1 mg/kg, Rat Brain, 6 hr, individual rats)?
**A.** 3 ng/mL and <LLQ (2×) and 5 ng/mL and 4 ng/mL and 2 ng/mL

**Q.** And the “Concentration of anatabine” value (Anatabine 0.1 mg/kg, Rat Brain, 24 hr, individual rats)?
**A.** <LLQ (4×) and 2 ng/mL

**Q.** What about the “Concentration of anatabine” value (Anatabine 0.75 mg/kg, Rat Brain, 0.5 hr, individual rats) of the same molecule?
**A.** 317 ng/mL and 393 ng/mL

**Q.** What about the “Concentration of anatabine” value (Anatabine 0.75 mg/kg, Rat Brain, 6 hr, individual rats) of the same molecule?
**A.** 28 ng/mL and 19 ng/mL and 17 ng/mL and 27 ng/mL and 20 ng/mL

**Q.** What about the “Concentration of anatabine” value (Anatabine 0.75 mg/kg, Rat Brain, 24 hr, individual rats) of the same molecule?
**A.** <LLQ

**Q.** And the “Avg. Conc. rat brain” value (Anatabine 0.75 mg/kg, female, 24 hr)?
**A.** <LLQ

**Q.** And the “Avg. Conc. rat brain, combined male and female” value (Anatabine 0.75 mg/kg, male and female, 24 hr)?
**A.** <LLQ

**Q.** And the “Avg. Conc. rat brain” value (Anatabine 0.75 mg/kg, male, 24 hr)?
**A.** <LLQ

**Q.** What about the “Concentration of anatabine” value (Anatabine 1.0 mg/kg, Rat Brain, 0.5 hr, individual rats) of the same molecule?
**A.** 338 ng/mL and 362 ng/mL and 393 ng/mL

**Q.** What about the “Concentration of anatabine” value (Anatabine 1.0 mg/kg, Rat Brain, 6 hr, individual rats) of the same molecule?
**A.** 3 ng/mL and 4 ng/mL (2×) and 8 ng/mL (2×) and <LLQ

**Q.** And the “Concentration of anatabine” value (Anatabine 1.0 mg/kg, Rat Brain, 24 hr, individual rats)?
**A.** 2 ng/mL and <LLQ (4×)

**Q.** And the “Avg. Conc. rat brain” value (Anatabine 1.0 mg/kg, female, 24 hr)?
**A.** <LLQ

**Q.** And the concentration at 0.5 h (0.1 mg/kg, Concentration of anatabine in rat brain extract, Anatabine 0.1 mg/kg, Rat Brain, 0.5 hr, individual rats)?
**A.** 19 ng/mL

**Q.** And the concentration at 24 h (0.1 mg/kg, Concentration of anatabine in rat brain extract, Anatabine 0.1 mg/kg, Rat Brain, 24 hr, individual rats)?
**A.** 3 ng/mL

**Q.** And the concentration at 24 h (1 mg/kg, Concentration of anatabine in rat brain extract, Anatabine 1.0 mg/kg, Rat Brain, 24 hr, individual rats)?
**A.** 3 ng/mL

**Q.** And the “Mean concentration in rat brain extracts” value (anatabine 0.75 mg/kg i.v., 24 hr, Female)?
**A.** <LLQ

**Q.** What about the “Mean concentration in rat brain extracts” value (anatabine 0.75 mg/kg i.v., 24 hr, Male) of the same molecule?
**A.** <LLQ

**Q.** What about the “Mean concentration in rat brain extracts” value (anatabine 1.0 mg/kg i.v., 24 hr, Female) of the same molecule?
**A.** <LLQ

**Q.** And the concentration at 0.5 h (both sexes, 0.1 mg/kg, Anatabine 0.1 mg/kg, male and female, 0.5 hr, read-out: Avg. Conc. rat brain, combined male and female)?
**A.** 25.8 ng/g

**Q.** What about the concentration at 6 h (both sexes, 0.1 mg/kg, Anatabine 0.1 mg/kg, male and female, 6 hr, read-out: Avg. Conc. rat brain, combined male and female) of the same molecule?
**A.** 3.5 ng/g

**Q.** And the concentration at 24 h (both sexes, 0.1 mg/kg, Anatabine 0.1 mg/kg, male and female, 24 hr, read-out: Avg. Conc. rat brain, combined male and female)?
**A.** 2.5 ng/g

**Q.** What about the concentration at 0.5 h (both sexes, 0.75 mg/kg, Anatabine 0.75 mg/kg, male and female, 0.5 hr, read-out: Avg. Conc. rat brain, combined male and female) of the same molecule?
**A.** 295 ng/g

**Q.** What about the concentration at 6 h (both sexes, 0.75 mg/kg, Anatabine 0.75 mg/kg, male and female, 6 hr, read-out: Avg. Conc. rat brain, combined male and female) of the same molecule?
**A.** 21.2 ng/g

**Q.** What about the concentration at 6 h (both sexes, 0.75 mg/kg, Concentration of anatabine in rat brain extract, Anatabine 0.75 mg/kg, Rat Brain, 6 hr, individual rats) of the same molecule?
**A.** 16 ng/mL

**Q.** And the concentration at 0.5 h (both sexes, 1 mg/kg, Anatabine 1.0 mg/kg, male and female, 0.5 hr, read-out: Avg. Conc. rat brain, combined male and female)?
**A.** 334 ng/g

**Q.** What about the concentration at 6 h (both sexes, 1 mg/kg, Anatabine 1.0 mg/kg, male and female, 6 hr, read-out: Avg. Conc. rat brain, combined male and female) of the same molecule?
**A.** 5.4 ng/g

**Q.** What about the concentration at 24 h (both sexes, 1 mg/kg, Anatabine 1.0 mg/kg, male and female, 24 hr, read-out: Avg. Conc. rat brain, combined male and female) of the same molecule?
**A.** 2.5 ng/g

**Q.** And the concentration at 0.5 h (both sexes, 1 mg/kg, Concentration of anatabine in rat brain extract, Anatabine 1.0 mg/kg, Rat Brain, 0.5 hr, individual rats)?
**A.** 349 ng/mL

**Q.** And the concentration at 0.5 h (female, 0.1 mg/kg, Anatabine 0.1 mg/kg, female, 0.5 hr, read-out: Avg. Conc. rat brain)?
**A.** 29.7 ng/g

**Q.** And the concentration at 6 h (female, 0.1 mg/kg, Anatabine 0.1 mg/kg, female, 6 hr, read-out: Avg. Conc. rat brain)?
**A.** 3.7 ng/g

**Q.** What about the concentration at 24 h (female, 0.1 mg/kg, Anatabine 0.1 mg/kg, female, 24 hr, read-out: Avg. Conc. rat brain) of the same molecule?
**A.** 2 ng/g

**Q.** What about the concentration at 0.5 h (female, 0.1 mg/kg, anatabine 0.1 mg/kg i.v., 0.5 hr, Female, read-out: Mean concentration in rat brain extracts) of the same molecule?
**A.** 29.7 ± 4.5 ng/g

**Q.** What about the concentration at 6 h (female, 0.1 mg/kg, anatabine 0.1 mg/kg i.v., 6 hr, Female, read-out: Mean concentration in rat brain extracts) of the same molecule?
**A.** 3.7 ± 1.5 ng/g

**Q.** And the concentration at 24 h (female, 0.1 mg/kg, anatabine 0.1 mg/kg i.v., 24 hr, Female, read-out: Mean concentration in rat brain extracts)?
**A.** 2 ng/g

**Q.** What about the concentration at 0.5 h (female, 0.75 mg/kg, Anatabine 0.75 mg/kg, female, 0.5 hr, read-out: Avg. Conc. rat brain) of the same molecule?
**A.** 315 ng/g

**Q.** And the concentration at 6 h (female, 0.75 mg/kg, Anatabine 0.75 mg/kg, female, 6 hr, read-out: Avg. Conc. rat brain)?
**A.** 21 ng/g

**Q.** What about the concentration at 0.5 h (female, 0.75 mg/kg, anatabine 0.75 mg/kg i.v., 0.5 hr, Female, read-out: Mean concentration in rat brain extracts) of the same molecule?
**A.** 315 ± 67.9 ng/g

**Q.** And the concentration at 6 h (female, 0.75 mg/kg, anatabine 0.75 mg/kg i.v., 6 hr, Female, read-out: Mean concentration in rat brain extracts)?
**A.** 21 ± 6.2 ng/g

**Q.** And the concentration at 0.5 h (female, 1 mg/kg, Anatabine 1.0 mg/kg, female, 0.5 hr, read-out: Avg. Conc. rat brain)?
**A.** 346 ng/g

**Q.** And the concentration at 6 h (female, 1 mg/kg, Anatabine 1.0 mg/kg, female, 6 hr, read-out: Avg. Conc. rat brain)?
**A.** 6 ng/g

**Q.** What about the concentration at 0.5 h (female, 1 mg/kg, anatabine 1.0 mg/kg i.v., 0.5 hr, Female, read-out: Mean concentration in rat brain extracts) of the same molecule?
**A.** 346 ± 56.7 ng/g

**Q.** What about the concentration at 6 h (female, 1 mg/kg, anatabine 1.0 mg/kg i.v., 6 hr, Female, read-out: Mean concentration in rat brain extracts) of the same molecule?
**A.** 6 ± 2.8 ng/g

**Q.** And the concentration at 0.5 h (male, 0.1 mg/kg, Anatabine 0.1 mg/kg, male, 0.5 hr, read-out: Avg. Conc. rat brain)?
**A.** 20 ng/g

**Q.** What about the concentration at 6 h (male, 0.1 mg/kg, Anatabine 0.1 mg/kg, male, 6 hr, read-out: Avg. Conc. rat brain) of the same molecule?
**A.** 3 ng/g

**Q.** And the concentration at 24 h (male, 0.1 mg/kg, Anatabine 0.1 mg/kg, male, 24 hr, read-out: Avg. Conc. rat brain)?
**A.** 3 ng/g

**Q.** What about the concentration at 0.5 h (male, 0.1 mg/kg, anatabine 0.1 mg/kg i.v., 0.5 hr, Male, read-out: Mean concentration in rat brain extracts) of the same molecule?
**A.** 20 ± 1.4 ng/g

**Q.** And the concentration at 6 h (male, 0.1 mg/kg, anatabine 0.1 mg/kg i.v., 6 hr, Male, read-out: Mean concentration in rat brain extracts)?
**A.** 3 ng/g

**Q.** What about the concentration at 24 h (male, 0.1 mg/kg, anatabine 0.1 mg/kg i.v., 24 hr, Male, read-out: Mean concentration in rat brain extracts) of the same molecule?
**A.** 3 ng/g

**Q.** What about the concentration at 0.5 h (male, 0.75 mg/kg, Anatabine 0.75 mg/kg, male, 0.5 hr, read-out: Avg. Conc. rat brain) of the same molecule?
**A.** 276 ng/g

**Q.** What about the concentration at 6 h (male, 0.75 mg/kg, Anatabine 0.75 mg/kg, male, 6 hr, read-out: Avg. Conc. rat brain) of the same molecule?
**A.** 21.3 ng/g

**Q.** And the concentration at 0.5 h (male, 0.75 mg/kg, anatabine 0.75 mg/kg i.v., 0.5 hr, Male, read-out: Mean concentration in rat brain extracts)?
**A.** 276 ± 37 ng/g

**Q.** What about the concentration at 0.5 h (male, 1 mg/kg, Anatabine 1.0 mg/kg, male, 0.5 hr, read-out: Avg. Conc. rat brain) of the same molecule?
**A.** 323 ng/g

**Q.** What about the concentration at 6 h (male, 1 mg/kg, Anatabine 1.0 mg/kg, male, 6 hr, read-out: Avg. Conc. rat brain) of the same molecule?
**A.** 5 ng/g

**Q.** What about the concentration at 24 h (male, 1 mg/kg, Anatabine 1.0 mg/kg, male, 24 hr, read-out: Avg. Conc. rat brain) of the same molecule?
**A.** 2.5 ng/g

**Q.** And the concentration at 0.5 h (male, 1 mg/kg, anatabine 1.0 mg/kg i.v., 0.5 hr, Male, read-out: Mean concentration in rat brain extracts)?
**A.** 323 ± 35.9 ng/g

**Q.** What about the concentration at 6 h (male, 1 mg/kg, anatabine 1.0 mg/kg i.v., 6 hr, Male, read-out: Mean concentration in rat brain extracts) of the same molecule?
**A.** 5 ± 2.6 ng/g

**Q.** What about the concentration at 24 h (male, 1 mg/kg, anatabine 1.0 mg/kg i.v., 24 hr, Male, read-out: Mean concentration in rat brain extracts) of the same molecule?
**A.** 2.5 ± 0.7 ng/g

**Q.** And the “appearance in brain tissue following i.v. administration” value (single i.v., rats)?
**A.** rapidly appear in brain tissue
